Assay results as given in US9139567B2, “Arylpyrazole ethers as inhibitors of leukotriene A4 hydrolase” (Boehringer Ingelheim International GmbH, priority 2011, dated 2015).

What was measured:
human LTA4 hydrolase = molecular target: T1, human LTA4 hydrolase (Homo sapiens, UniProt P09960); assay: LTA4H enzyme assay (cleavage of Arg-AMC, fluorescence); assay type: biochemical; conditions: LTA4H enzyme 1 nM, Arg-AMC substrate 50 μM, room temperature 1 h
T1 sequence (P09960 1-611): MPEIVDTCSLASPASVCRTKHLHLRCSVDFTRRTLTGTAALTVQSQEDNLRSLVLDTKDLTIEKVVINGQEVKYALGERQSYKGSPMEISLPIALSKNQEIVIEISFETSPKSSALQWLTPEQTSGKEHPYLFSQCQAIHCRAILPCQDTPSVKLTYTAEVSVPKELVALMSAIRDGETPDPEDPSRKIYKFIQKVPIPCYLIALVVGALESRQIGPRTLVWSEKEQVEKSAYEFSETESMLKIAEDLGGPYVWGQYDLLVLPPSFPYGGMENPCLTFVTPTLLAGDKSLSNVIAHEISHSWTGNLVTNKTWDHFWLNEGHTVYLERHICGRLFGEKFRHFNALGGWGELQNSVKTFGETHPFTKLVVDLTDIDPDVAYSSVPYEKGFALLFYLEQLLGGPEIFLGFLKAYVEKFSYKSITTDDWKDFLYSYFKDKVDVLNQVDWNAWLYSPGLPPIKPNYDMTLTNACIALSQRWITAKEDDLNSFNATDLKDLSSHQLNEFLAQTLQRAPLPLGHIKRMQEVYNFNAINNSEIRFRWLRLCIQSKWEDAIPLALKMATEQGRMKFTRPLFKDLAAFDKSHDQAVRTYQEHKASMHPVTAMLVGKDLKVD
Protocol: Compounds are assessed for the ability to interact with human LTA4 hydrolase in an enzymatic assay that measures the ability of the enzyme to cleave the peptide bond of arginyl-aminomethylcoumarin (Arg-AMC). LTA4H Enzyme (1 nM final), Arg-AMC substrate (50 μM final), and compound are combined in a reaction buffer (50 mM Tris-HCl (pH 7.5), 100 mM KCl, 0.5% bovine serum albumin) at room temperature for 1 h. The formation of product is assessed by measuring the fluorescence of aminomethylcoumarin product (excitation wavelength 380 nm/emission wavelength 460 nm).

[1] = test system: LTB4 production in human whole blood; assay: LTB4 production inhibition assay in human whole blood (calcimycin-stimulated); assay type: cell-based; conditions: heparinized human whole blood, 15 min 37° C., calcimycin 20 μM 30 min, plasma LTB4 by HTRF
Protocol: Compounds of the invention are additionally tested in a human whole blood assay to determine their ability to inhibit the synthesis of LTB4 in a cellular system. Compounds are combined with heparinized human whole blood and incubated for 15 minutes at 37° C. Calcimycin (20 μM final, prepared in phosphate-buffered saline, pH 7.4) is then added and the mixture is incubated for another 30 minutes at 37° C. The samples are centrifuged for 5 min at low speed (1500×g) and the plasma layer is removed. Plasma LTB4 concentrations are then measured using an antibody-based homogenous time-resolved fluorescence method (CisBio, Bedford, Mass.).

Row | Structure (SMILES) | IC50 (human LTA4 hydrolase) [nM] | IC50 [1] [nM]
1 | O=C1CC[C@H](COc2ccc(Oc3ccc(-c4ccn[nH]4)cc3)cc2)N1 [Example 1, (5R)-5-({4-[4-(1H-pyrazol-5-yl)phenoxy]phenoxy}methyl)pyrrolidin-2-one] | 0.2 | 246
2 | c1cc(-c2ccc(Oc3ccc(OCc4ccc5[nH]cnc5c4)cc3)cc2)[nH]n1 [Example 81, 5-({4-[4-(1H-pyrazol-5-yl)phenoxy]phenoxy}methyl)-1H-benzimidazole] | 14.2 | ≥ 5000
3 | c1ccc2c(c1)ncn2CCOc1ccc(Oc2ccc(-c3ccn[nH]3)cc2)cc1 [Example 43, 1-(2-{4-[4-(1H-pyrazol-5-yl)phenoxy]phenoxy}ethyl)-1H-benzimidazole] | 1.3 | 1910
4 | C[C@@H](Oc1ccc(Oc2ccc(-c3ccn[nH]3)cc2)cc1)c1ccccn1 [Example 59, 2-[(1R)-1-{4-[4-(1H-pyrazol-5-yl)phenoxy]phenoxy}ethyl]pyridine] | 42.7 | ≥ 5000
5 | Cn1ccc(COc2ccc(Oc3ccc(-c4ccn[nH]4)cc3)cc2)n1 [Example 65, 1-methyl-3-({4-[4-(1H-pyrazol-5-yl)phenoxy]phenoxy}methyl)-1H-pyrazole] | 12.9 | ≥ 5000
6 | c1cnc(COc2ccc(Oc3ccc(-c4ccn[nH]4)cc3)cc2)nc1 [Example 75, 2-({4-[4-(1H-pyrazol-5-yl)phenoxy]phenoxy}methyl)pyrimidine] | 6.6 | 2840
7 | CC(Cc1ccccc1)Oc1ccc(Oc2ccc(-c3ccn[nH]3)cc2)cc1 (stereo not drawn) [Example 31, 5-{4-[4-(1-methyl-2-phenylethoxy)phenoxy]phenyl}-1H-pyrazole] | 900 | ≥ 5000
8 | c1cncc(COc2ccc(Oc3ccc(-c4ccn[nH]4)cc3)cc2)c1 [Example 34, 3-({4-[4-(1H-pyrazol-5-yl)phenoxy]phenoxy}methyl)pyridine] | 1.5 | 2540
9 | O=C1CC[C@@H](Oc2ccc(Oc3ccc(-c4ccn[nH]4)cn3)cc2)CN1 [Example 17, (5R)-5-(4-{[5-(1H-pyrazol-5-yl)pyridin-2-yl]oxy}phenoxy)piperidin-2-one] | 1.5 | 425
10 | c1cc(-c2ccc(Oc3ccc(OCc4ccoc4)cc3)cc2)[nH]n1 [Example 63, 5-{4-[4-(3-furylmethoxy)phenoxy]phenyl}-1H-pyrazole] | 52.9 | ≥ 5000
11 | O=C1CC[C@@H](Oc2ccc(Cc3ccc(-c4ccn[nH]4)cc3)cc2)CN1 [Example 18, (5R)-5-{4-[4-(1H-pyrazol-5-yl)benzyl]phenoxy}piperidin-2-one] | 0.8 | 581
12 | c1csc(CCOc2ccc(Oc3ccc(-c4ccn[nH]4)cc3)cc2)c1 [Example 68, 5-(4-{4-[2-(2-thienyl)ethoxy]phenoxy}phenyl)-1H-pyrazole] | 820 | ≥ 5000
13 | O=C1N[C@H](COc2ccc(Oc3ccc(-c4ccn[nH]4)cc3)cc2)CO1 [Example 12, (4R)-4-({4-[4-(1H-pyrazol-5-yl)phenoxy]phenoxy}methyl)-1,3-oxazolidin-2-one] | 0.1 | 104
14 | Cn1ncnc1COc1ccc(Oc2ccc(-c3ccn[nH]3)cc2)cc1 [Example 56, 1-methyl-5-({4-[4-(1H-pyrazol-5-yl)phenoxy]phenoxy}methyl)-1H-1,2,4-triazole] | 0.6 | ≥ 5000
15 | c1ccc2[nH]c(CCOc3ccc(Oc4ccc(-c5ccn[nH]5)cc4)cc3)nc2c1 [Example 45, 2-(2-{4-[4-(1H-pyrazol-5-yl)phenoxy]phenoxy}ethyl)-1H-benzimidazole] | 1.7 | ≥ 5000
16 | O=C1OCC[C@H]1Oc1ccc(Oc2ccc(-c3ccn[nH]3)cc2)cc1 [Example 88, (3R)-3-{4-[4-(1H-pyrazol-5-yl)phenoxy]phenoxy}dihydrofuran-2(3H)-one] | 16.4 | ≥ 5000
17 | O=C1N[C@H](COc2ccc(Oc3ccc(-c4ccn[nH]4)cn3)cc2)CO1 [Example 24, (4R)-4-[(4-{[5-(1H-pyrazol-5-yl)pyridin-2-yl]oxy}phenoxy)methyl]-1,3-oxazolidin-2-one] | 0.2 | 123
18 | O=C1CCC(Oc2ccc(Oc3ccc(-c4ccn[nH]4)cc3)cc2)CN1 (stereo not drawn) [Example 8, 5-{4-[4-(1H-pyrazol-5-yl)phenoxy]phenoxy}piperidin-2-one] | 0.5 | 222
19 | c1cc(-c2ccc(Oc3ccc(OCc4nccs4)cc3)cc2)[nH]n1 [Example 73, 2-({4-[4-(1H-pyrazol-5-yl)phenoxy]phenoxy}methyl)-1,3-thiazole] | 10.4 | 4100
20 | c1cnn(CCCOc2ccc(Oc3ccc(-c4ccn[nH]4)cc3)cc2)c1 [Example 50, 1-(3-{4-[4-(1H-pyrazol-5-yl)phenoxy]phenoxy}propyl)-1H-pyrazole] | 1.2 | 2110
21 | O=C1CC[C@@H](Oc2ccc(Oc3ccc(-c4ccn[nH]4)cc3)cn2)CN1 [Example 19, (5R)-5-({5-[4-(1H-pyrazol-5-yl)phenoxy]pyridin-2-yl}oxy)piperidin-2-one] | 1.9 | 554
22 | O=C1CC[C@@H](COc2ccc(Oc3ccc(-c4ccn[nH]4)cn3)cc2)N1 [Example 3, (5S)-5-[(4-{[5-(1H-pyrazol-5-yl)pyridin-2-yl]oxy}phenoxy)methyl]pyrrolidin-2-one] | 0.2 | 142
23 | CN1CC(COc2ccc(Oc3ccc(-c4ccn[nH]4)cc3)cc2)CC1=O (stereo not drawn) [Example 7, 1-methyl-4-({4-[4-(1H-pyrazol-5-yl)phenoxy]phenoxy}methyl)pyrrolidin-2-one] | 0.5 | 280
24 | O=C1OCC[C@@H]1Oc1ccc(Oc2ccc(-c3ccn[nH]3)cc2)cc1 [Example 87, (3S)-3-{4-[4-(1H-pyrazol-5-yl)phenoxy]phenoxy}dihydrofuran-2(3H)-one] | 23.1 | ≥ 5000
25 | Cn1nccc1COc1ccc(Oc2ccc(-c3ccn[nH]3)cc2)cc1 [Example 61, 1-methyl-5-({4-[4-(1H-pyrazol-5-yl)phenoxy]phenoxy}methyl)-1H-pyrazole] | 1.4 | 1120
26 | c1cc(-c2ccc(Oc3ccc(OCc4ccsc4)cc3)cc2)[nH]n1 [Example 69, 5-{4-[4-(3-thienylmethoxy)phenoxy]phenyl}-1H-pyrazole] | 65.3 | ≥ 5000
27 | CC(COc1ccc(Oc2ccc(-c3ccn[nH]3)cc2)cc1)c1ccccc1 (stereo not drawn) [Example 32, 5-{4-[4-(2-phenylpropoxy)phenoxy]phenyl}-1H-pyrazole] | 360 | ≥ 5000
28 | c1cc(-c2ccc(Oc3ccc(OC4CCOCC4)cc3)cc2)[nH]n1 [Example 89, 5-{4-[4-(tetrahydro-2H-pyran-4-yloxy)phenoxy]phenyl}-1H-pyrazole] | 4.8 | 1770
29 | c1cc(COc2ccc(Oc3ccc(-c4ccn[nH]4)cc3)cc2)ccn1 [Example 35, 4-({4-[4-(1H-pyrazol-5-yl)phenoxy]phenoxy}methyl)pyridine] | 3.9 | 1780
30 | O=C1CC[C@@H](COc2ccc(Oc3ccc(-c4ccn[nH]4)cc3)cc2)O1 [Example 86, (5S)-5-({4-[4-(1H-pyrazol-5-yl)phenoxy]phenoxy}methyl)dihydrofuran-2(3H)-one] | 0.8 | 4500
